From PubChem BioAssay (NCI) come the findings set out here.

Test in all cases: NCI tumour cell line growth inhibition, 48 h
The subject of assay [1] is SF-539 CNS.
The test system of assay [2] is TK-10 renal.
Assay [3] deals with NCI-H522 lung.
The test system of assay [4] is SK-MEL-2 melanoma.
The subject of assay [5] is CAKI-1 renal.
The subject of assay [6] is NCI/ADR-RES ovarian.
Assay [7] concerns NCI-H23 lung.
Assay [8] relates to M14 melanoma.
For assay [9], the system named is EKVX NSCLC.
The subject of assay [10] is NCI-H460 lung.

“And” between values parts separate entries of the source, which are not always exact repeats. Identical values can stand only once.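 Values below derive from 48-hour exposures of cells grown in 96-well plates, with endpoints linearly interpolated between the two concentrations bracketing the appropriate inhibition level. GI50: concentration for 50% inhibition of growth. TGI marks complete inhibition of growth.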

For the compound `COc1cc(OC)c(C(=O)/C=C/c2cccc(C#N)c2)c(OC)c1`, the GI50 was 1.41 µM in assay [1]; 1.63 µM in assay [2]; 0.992 µM in assay [3]; 1.49 µM in assay [4]; 2.03 µM in [5]; 1.44 µM in [6]. In addition, the GI50 was 1.21 µM in [7], 0.978 µM in assay [8], 1.37 µM in [9] and 1.1 µM in assay [10]. In addition, the TGI in [1] was determined as 4.12 µM; in [2] it was 5.52 µM; in assay [3], 2.94 µM; in assay [4] it was 6.44 µM; in [5], 7.16 µM; in assay [6] it was 10.5 µM. Moreover, the TGI is 4.59 µM in assay [7], 4.68 µM in [8], 5.32 µM in [9] and 2.86 µM in [10].
`Cc1nn(C)c(COc2ccc(N3CCN(S(=O)(=O)N(C)C)CC3)cc2)c1-c1cccc2c(CCCOc3cccc4ccccc34)c(C(=O)O)n(CCN3CCOCC3)c12`: the GI50 in assay [1] was 2.44 µM; in [2], 3.47 µM; in assay [3], 3.11 µM; in [4], 1.95 µM; in assay [5], 11.4 µM; in [6] it was 36.5 µM. Also, the GI50 is 3.54 µM in assay [7], 2.28 µM in assay [8], 3.59 µM in [9] and 3.17 µM in assay [10]. For the same compound, the TGI in [1] is 6.17 µM; in assay [2] it was 15.5 µM; in assay [3], 9.35 µM; in assay [4], 4.35 µM; in assay [5], 23.9 µM; in assay [6], greater than 100 µM. Further, the TGI in [7] is 14.7 µM; in assay [8], 5.32 µM; in assay [9], 15 µM; in [10], 11.1 µM.
Consider `CC(=O)[O][Sn]([CH2]c1ccccc1)([CH2]c1ccccc1)[CH2]c1ccccc1`, for which the GI50 in assay [1] is greater than 5.42 µM; in assay [2], greater than 3.8 µM; in assay [3] it was greater than 3.86 µM; in assay [4], greater than 8.34 µM; in [5] it was greater than 10 µM; in assay [6], greater than 10 µM. Besides, the GI50 in assay [7] is greater than 5.98 µM; in assay [8], greater than 8.37 µM; in assay [9], greater than 5.53 µM; in assay [10], greater than 10 µM. For the same compound, the TGI in assay [1] was greater than 6.76 µM; in [2], greater than 5.43 µM; in [3] it was greater than 7.23 µM; in assay [4], greater than 10 µM; in [5] it was greater than 10 µM; in assay [6], greater than 10 µM. Further, the TGI in [7] was greater than 7.83 µM; in assay [8], greater than 10 µM; in assay [9], greater than 6.88 µM; in [10], greater than 10 µM.
`Cc1cn2c(/C=C3/C(=O)Nc4ccc(O)cc43)c(C)nc2s1`: the GI50 in [1] was 2.42 µM; in [2] it was 2.43 µM; in [3] it was 0.773 µM; in assay [4], greater than 53 µM; in assay [5], 3.28 µM; in assay [6] it was 20.9 µM. The GI50 in [7] was 7.12 µM; in assay [8], 2.29 µM; in assay [9] it was 12.9 µM; in assay [10], 2.56 µM. Further, the TGI was 9.16 µM in [1]; 26 µM in [2]; greater than 29.3 µM in assay [3]; greater than 100 µM in assay [4]; 19.8 µM in assay [5]; greater than 70.6 µM in [6]. Moreover, the TGI in [7] was greater than 68.9 µM; in assay [8] it was greater than 39.1 µM; in assay [9], greater than 100 µM; in assay [10], 14.5 µM.
As to `C=C1CC[C@@H]2[C@](C)(COC(C)=O)[C@H](OC(C)=O)CC[C@@]2(C)[C@@H]1CC(Nc1ccc(S(=O)(=O)Nc2ccc(Cl)nn2)cc1)C1=CCOC1=O` (some centres undefined), the GI50 in assay [1] is 1.23 µM; in [2], 2.13 µM; in assay [3], 0.754 µM; in [4], 1.77 µM; in assay [5], 2.28 µM; in assay [6] it was 1.87 µM. Besides, the GI50 in [7] is 2.06 µM; in [8], 1.45 µM; in assay [9], 4.53 µM; in [10], 2.03 µM. In addition, the TGI in [1] came to 2.63 µM; in [2], 4.19 µM; in assay [3], 2.1 µM; in [4] it was 3.99 µM; in [5], 10 µM; in assay [6] it was 6.2 µM. Also, the TGI in [7] is 5.35 µM; in [8], 3.41 µM; in [9], 17 µM; in assay [10] it was 4.31 µM.
For `Cc1[nH]c(=O)nc(Nc2ccc(Cl)cc2)c1C(=O)N1CCN(CCO)CC1`, the GI50 was 75.9 µM in assay [1]; 77.7 µM in [2]; 59.8 µM in assay [3]; greater than 100 µM in assay [5]; greater than 100 µM in assay [6]; 76 µM in assay [7]. The GI50 in assay [8], in [9] and in [10] was greater than 100 µM in each case. Besides, the TGI in assay [1], in [2], in assay [3], in assay [5], in assay [6] and in assay [7] was greater than 100 µM throughout. The TGI in assay [8], in assay [9] and in [10] was greater than 100 µM in each case.
Consider `O=c1c(O)c(-c2ccc(O)c(O)c2)oc2cc(O)cc(O)c12`, for which the GI50 in assay [1] is 6.04 µM; in assay [2], 49.4 µM; in assay [3], 5.54 µM; in assay [4], 15.1 µM; in [5], 20.4 µM; in assay [6], 12.8 µM. In addition, the GI50 is 9.65 µM in assay [7], 17.3 µM in assay [8], 23.9 µM in [9] and 6.73 µM in assay [10]. The TGI was 37.2 µM and > 100 µM in assay [1]; greater than 100 µM in assay [2]; greater than 100 µM in [3]; 47.3 µM and > 100 µM in assay [4]; greater than 100 µM in [5]; 63.8 µM in assay [6]. The TGI is 50 µM in assay [7]; greater than 100 µM in assay [8]; greater than 100 µM in assay [9]; 66.9 µM and > 100 µM in [10].
With `Cc1nn(-c2ccc(Cl)cc2)c2nc3c(nc12)C(=O)C(=O)c1ccccc1-3`, the GI50 in [1] was 3.14 µM; in [3], 2.96 µM; in [4], 4.71 µM; in assay [5], 7.93 µM; in assay [6] it was 3.92 µM; in assay [7], 1.71 µM. The GI50 is 1.89 µM in assay [8] and 7.36 µM in assay [9]. Besides, the TGI was 9.3 µM in [1]; 6.57 µM in assay [3]; 16.2 µM in assay [4]; greater than 100 µM in assay [5]; greater than 100 µM in assay [6]; 3.88 µM in assay [7]. Further, the TGI is 4.1 µM in assay [8] and greater than 100 µM in assay [9].
For `COc1cc(/C=C/C(=O)c2ccc(F)cc2)ccc1OCCCN1CCN(CC(=O)Nc2ccc(Cl)cc2C(=O)c2ccccc2Cl)CC1`, the GI50 in [1] was 10.2 µM; in assay [2], 10.4 µM; in [3], 14.4 µM; in assay [4], 12.6 µM; in [5] it was 11 µM; in assay [6], 13 µM. In addition, the GI50 in assay [7] is 17.4 µM; in assay [8], 3.4 µM; in [9], 31.3 µM; in [10], 4.47 µM. The TGI is 23.3 µM in assay [1]; 26.1 µM in assay [2]; 33.7 µM in [3]; 32.1 µM in assay [4]; 32.5 µM in assay [5]; greater than 100 µM in [6]. Further, the TGI was greater than 100 µM in assay [7], 13.3 µM in assay [8], greater than 100 µM in assay [9] and greater than 100 µM in assay [10].
`COc1cc([N+](=O)[O-])c(OC)cc1-c1nc2sccn2c1/C=N/N=C(N)N`: the GI50 in assay [1] was 12 µM; in [2] it was 18 µM; in assay [3], 21 µM; in [4], 30.9 µM; in assay [5] it was 22.9 µM; in [6] it was 51.1 µM. Also, the GI50 in assay [7] was 14.8 µM; in assay [8] it was 40.8 µM; in assay [9], 25.9 µM; in assay [10], 28.3 µM. Moreover, the TGI was 46.5 µM in assay [1]; 50.6 µM in assay [2]; greater than 100 µM in assay [3]; greater than 100 µM in [4]; 66.3 µM in assay [5]; greater than 100 µM in [6]. For the same compound, the TGI in [7] was 71.9 µM; in assay [8], greater than 100 µM; in assay [9] it was 73.6 µM; in assay [10], greater than 100 µM.
For `Nc1ccccc1C#C/C=C\C#Cc1cccc(O)c1`, the GI50 in [1] is 2.5 µM; in assay [2], 8.73 µM; in assay [3], 1.09 µM; in [5], 8.08 µM; in [6] it was 2.39 µM; in [7], 2.44 µM. In addition, the GI50 in [8] is 1.3 µM; in assay [9], 2.69 µM; in [10] it was 3.19 µM. Besides, the TGI in [1] came to 11.5 µM; in [2] it was 29.7 µM; in [3], 11.5 µM; in assay [5] it was 36.2 µM; in assay [6] it was 10.3 µM; in assay [7] it was 9.38 µM. Moreover, the results for the TGI in assay [8], in assay [9] and in assay [10] were 5.65 µM, 23.4 µM and greater than 34.2 µM, respectively.
Take `COc1ccc(CC(=O)c2ccc(O)cc2O)cc1`: the GI50 is greater than 100 µM in assay [1]; 60.8 µM in [3]; greater than 100 µM in assay [4]; 59.6 µM in assay [5]; 58.8 µM in assay [6]; 63.5 µM in assay [7]. Further, the GI50 was greater than 100 µM in [8], 47.7 µM in assay [9] and 56.1 µM in assay [10]. Moreover, the TGI in assay [1], in assay [3], in assay [4], in [5], in assay [6] and in [7] was greater than 100 µM in each case. Moreover, the TGI in assay [8], in [9] and in [10] was greater than 100 µM in each case.
Regarding `CCN1C(=O)N(CC)C2C1NN=c1s/c(=C\c3ccccn3)c(=O)n12` (centres undefined), the GI50 is 1.74 µM in assay [1]; 40.7 µM in assay [2]; 0.69 µM in [3]; 2.64 µM in assay [4]; 0.752 µM in assay [5]; 0.977 µM in assay [6]. For the same compound, the GI50 was 3.82 µM in assay [7], 4.45 µM in assay [9] and 2.07 µM in [10]. Moreover, the TGI is 7.9 µM in assay [1]; greater than 100 µM in [2]; 10.2 µM in assay [3]; greater than 100 µM in assay [4]; greater than 100 µM in assay [5]; greater than 100 µM in [6]. The TGI in [7], in assay [9] and in assay [10] was greater than 100 µM each time.
Consider `O=C1NOC(c2ccc(O)cc2)(c2ccc(O)cc2)c2ccccc21`, for which the GI50 in assay [2], in assay [3], in assay [4], in assay [5], in assay [6] and in assay [7] was greater than 100 µM each time. The GI50 in assay [8], in assay [9] and in [10] was greater than 100 µM throughout. The TGI in assay [2], in assay [3], in assay [4], in assay [5], in assay [6] and in [7] was greater than 100 µM in each case. In addition, the TGI in [8], in [9] and in assay [10] was greater than 100 µM throughout.
With `CN(C)C(=O)c1cnc2oc3ccc(O)cc3c2c1-c1ccccc1`, the GI50 in assay [2] was greater than 25 µM; in assay [3], greater than 25 µM; in assay [4], greater than 25 µM; in assay [5], greater than 25 µM; in assay [6] it was greater than 25 µM; in assay [7], 11.5 µM. Moreover, the results for the GI50 in [8], in assay [9] and in assay [10] were greater than 25 µM, greater than 25 µM and 16.2 µM, respectively. Further, the TGI in assay [2], in [3], in assay [4], in assay [5], in assay [6] and in assay [7] was greater than 25 µM each time. Besides, the TGI in assay [8], in [9] and in assay [10] was greater than 25 µM throughout.
